What all share (assay type): cell-based
One experiment has as its target T1, GIP-R (Homo sapiens, UniProt P48546).
T1 sequence (P48546 22-466): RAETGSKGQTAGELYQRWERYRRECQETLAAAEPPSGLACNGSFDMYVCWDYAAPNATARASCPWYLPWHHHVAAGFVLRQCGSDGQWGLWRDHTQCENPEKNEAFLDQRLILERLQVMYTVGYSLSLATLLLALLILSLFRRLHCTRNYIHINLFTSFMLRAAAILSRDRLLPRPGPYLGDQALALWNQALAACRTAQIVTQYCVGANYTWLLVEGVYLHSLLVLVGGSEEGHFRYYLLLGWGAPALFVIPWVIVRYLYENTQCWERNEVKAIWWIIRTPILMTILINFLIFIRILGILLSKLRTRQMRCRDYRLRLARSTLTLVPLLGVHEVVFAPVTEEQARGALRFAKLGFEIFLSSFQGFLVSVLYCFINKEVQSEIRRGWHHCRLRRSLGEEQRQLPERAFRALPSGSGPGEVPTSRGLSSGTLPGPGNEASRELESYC
Briefly: HitHunter cAMP assay (GIP-R). The settings on record: cAMP; for Emax: read-out: (Emax) GIP-R. Summed up:
(§1)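 Luminescent readout of cAMP by enzyme-fragment immunocompetition gave agonist concentration-response data. Cells (10,000/well) sat in HBSS buffer containing IBMX 625 μM, HEPES 10 mM and BSA 0.2%, exposed to agonist for 30 min at room temperature.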

Experiment [1] addresses T2, GLP-1R (Homo sapiens, UniProt P43220). Briefly: HitHunter cAMP assay (GLP-1R). The settings on record: cAMP; for Emax: read-out: (Emax) GLP-1R. The procedure, abridged: as §1
Experiment [2] has as its target T2, GLP-1R. Kind of experiment: PathHunter β-arrestin assay. The procedure, abridged:
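Overnight-plated cells; 0.2% BSA medium; agonist 22-pt 2× dilution series, duplicate; 90 min, 37 °C/5% CO2; detection reagent 3 h RT, dark; luminescence.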

[3] abbreviates: Table 3, read-out: EC50 GIP-R/nM.
Setting [4] is: Table 3A, read-out: EC50 GIP-R/nM.
The mark [5] stands for this setting: Table 3, read-out: EC50 GLP-1R/nM.
Where [6] appears, read: Table 3A, read-out: EC50 GLP-1R/nM.
Setting [7] is: PathHunter β-arrestin assay, read-out: β-arrestin activity EC50.

Like-named read-outs stand apart in the source and are kept apart here. Square brackets hold non-standard residues; d marks the D form. Peptide text beside a SMILES is read from it. * marks the point of attachment. X1 = O=C(CSCC(=O)*)NCCN1C(=O)c2ccccc2C1=O; Aib = CC(C)(N)C(=O)O Some results are limits rather than exact numbers.

T2 sequence (P43220 24-463): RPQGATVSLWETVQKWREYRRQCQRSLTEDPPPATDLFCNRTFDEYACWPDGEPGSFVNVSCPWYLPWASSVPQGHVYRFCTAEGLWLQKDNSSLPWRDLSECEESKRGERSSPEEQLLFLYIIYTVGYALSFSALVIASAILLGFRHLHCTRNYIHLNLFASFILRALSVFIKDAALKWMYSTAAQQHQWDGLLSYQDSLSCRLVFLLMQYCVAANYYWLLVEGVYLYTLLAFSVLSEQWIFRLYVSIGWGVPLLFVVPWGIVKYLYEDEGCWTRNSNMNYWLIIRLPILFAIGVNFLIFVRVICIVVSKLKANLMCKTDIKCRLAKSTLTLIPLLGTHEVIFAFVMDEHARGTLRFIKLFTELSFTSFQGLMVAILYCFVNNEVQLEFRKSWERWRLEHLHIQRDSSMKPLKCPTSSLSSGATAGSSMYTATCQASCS

For `CC[C@H](C)[C@H](NC(=O)[C@H](CO)NC(=O)[C@H](Cc1ccc(O)cc1)NC(=O)[C@H](CC(=O)O)NC(=O)[C@H](CO)NC(=O)[C@@H](NC(=O)[C@H](Cc1ccccc1)NC(=O)[C@@H](NC(=O)CNC(=O)[C@H](CCC(=O)O)NC(=O)CN1C(=O)CSC1=O)[C@@H](C)O)[C@@H](C)O)C(=O)N[C@@H](Cc1ccc(O)cc1)C(=O)N[C@@H](CC(C)C)C(=O)N[C@@H](CC(=O)O)C(=O)N[C@@H](CCCCN)C(=O)N[C@@H](CCC(N)=O)C(=O)N[C@@H](C)C(=O)N[C@@H](C)C(=O)NC(C)(C)C(=O)N[C@@H](CCC(=O)O)C(=O)N[C@@H](Cc1ccccc1)C(=O)N[C@H](C(=O)N[C@@H](CC(N)=O)C(=O)N[C@@H](Cc1c[nH]c2ccccc12)C(=O)N[C@@H](CC(C)C)C(=O)N[C@@H](CC(C)C)C(=O)N[C@@H](C)C(=O)NCC(=O)NCC(=O)N1CCC[C@H]1C(=O)N[C@@H](CO)C(=O)N[C@@H](CO)C(=O)NCC(=O)N[C@@H](C)C(=O)N1CCC[C@H]1C(=O)N1CCC[C@H]1C(=O)N1CCC[C@H]1C(=O)N[C@@H](CO)C(=O)N[C@@H](CCCCN)C(N)=O)C(C)C` [Compound 185], the EC50 at GIP-R (setting [3]) is over 1000 nM; on GIP-R (setting [4]), over 1000 nM; on GLP-1R [1] (setting [5]), 0.1 to 1 nM; at GLP-1R [1] (setting [6]) it was 0.1 to 1 nM; on GLP-1R [2] (setting [7]) it was over 1000 nM. For the same compound, the Emax at 1 µM on GIP-R (read-out: (Emax) GIP-R at 1 μM, Table 3, at 1 μM) is 8.6%. For the same compound, the Emax at GLP-1R [1] (Table 3) and at GLP-1R [1] (Table 3A) was 97% throughout.
On to `CCCCCCCCCCCCCCCC(=O)N[C@@H](CCC(=O)NCCCC[C@H](NC(=O)[C@H](CO)NC(=O)[C@@H]1CCCN1C(=O)[C@@H]1CCCN1C(=O)[C@@H]1CCCN1C(=O)[C@H](C)NC(=O)CNC(=O)[C@H](CO)NC(=O)[C@H](CO)NC(=O)[C@@H]1CCCN1C(=O)CNC(=O)CNC(=O)[C@H](C)NC(=O)[C@H](CC(C)C)NC(=O)[C@H](CC(C)C)NC(=O)[C@H](Cc1c[nH]c2ccccc12)NC(=O)[C@H](CC(N)=O)NC(=O)[C@@H](NC(=O)[C@H](Cc1ccccc1)NC(=O)[C@H](CCC(=O)O)NC(=O)C(C)(C)NC(=O)[C@H](C)NC(=O)[C@H](C)NC(=O)[C@H](CCC(N)=O)NC(=O)[C@H](CCCCN)NC(=O)[C@H](CC(=O)O)NC(=O)[C@H](CC(C)C)NC(=O)[C@H](Cc1ccc(O)cc1)NC(=O)[C@@H](NC(=O)[C@H](CO)NC(=O)[C@H](Cc1ccc(O)cc1)NC(=O)[C@H](CC(=O)O)NC(=O)[C@H](CO)NC(=O)[C@@H](NC(=O)[C@H](Cc1ccccc1)NC(=O)[C@@H](NC(=O)CNC(=O)[C@H](CCC(=O)O)NC(=O)CCC(=O)NCCN1CCCCC1=O)[C@@H](C)O)[C@@H](C)O)[C@@H](C)CC)C(C)C)C(N)=O)C(=O)O` [Compound 26], for which the maximal response (Emax) at GIP-R (Table 3) was 64%; at GIP-R (Table 3A) it was 64%; on GLP-1R [1] (Table 3), 95%; at GLP-1R [1] (Table 3A), 95%. In addition, the EC50 on GIP-R (setting [3]) was 1 to 10 nM; at GIP-R (setting [4]), 1 to 10 nM; at GLP-1R [1] (setting [5]), 0.1 to 1 nM; on GLP-1R [1] (setting [6]) it was 0.1 to 1 nM; at GLP-1R [2] (setting [7]) it was over 1000 nM.
For the compound `CCCCCCCCCCCCCCCC(=O)N[C@@H](CCC(=O)NCCCC[C@H](NC(=O)[C@H](CO)NC(=O)[C@@H]1CCCN1C(=O)[C@@H]1CCCN1C(=O)[C@@H]1CCCN1C(=O)[C@H](C)NC(=O)CNC(=O)[C@H](CO)NC(=O)[C@H](CO)NC(=O)[C@@H]1CCCN1C(=O)CNC(=O)CNC(=O)[C@H](C)NC(=O)[C@H](CC(C)C)NC(=O)[C@H](CC(C)C)NC(=O)[C@H](Cc1c[nH]c2ccccc12)NC(=O)[C@H](CC(N)=O)NC(=O)[C@@H](NC(=O)[C@H](Cc1ccccc1)NC(=O)[C@H](CCC(=O)O)NC(=O)C(C)(C)NC(=O)[C@H](C)NC(=O)[C@H](C)NC(=O)[C@H](CCC(N)=O)NC(=O)[C@H](CCCCN)NC(=O)[C@H](CC(=O)O)NC(=O)[C@H](CC(C)C)NC(=O)[C@H](Cc1ccc(O)cc1)NC(=O)[C@@H](NC(=O)[C@H](CO)NC(=O)[C@H](Cc1ccc(O)cc1)NC(=O)[C@H](CC(=O)O)NC(=O)[C@H](CO)NC(=O)[C@@H](NC(=O)[C@H](Cc1ccccc1)NC(=O)[C@@H](NC(=O)CNC(=O)[C@H](CCC(=O)O)NC(=O)CSCC(=O)N(C)CCN1C(=O)CSC1=O)[C@@H](C)O)[C@@H](C)O)[C@@H](C)CC)C(C)C)C(N)=O)C(=O)O` [Compound 93], the EC50 on GIP-R (EC50 GIP-R/nM, Table 3) is 1 to 10 nM; at GIP-R (EC50 GIP-R/nM, Table 3A), 1 to 10 nM; at GLP-1R [1] (EC50 GLP-1R/nM, Table 3), 0.1 to 1 nM; at GLP-1R [1] (EC50 GLP-1R/nM, Table 3A), 0.1 to 1 nM; on GLP-1R [2] it was over 1000 nM. For the same compound, the maximum response (Emax) worked out at 73% on GIP-R (Table 3), 73% on GIP-R (Table 3A), 99% at GLP-1R [1] (Table 3) and 99% at GLP-1R [1] (Table 3A).
Turning to `CCCCCCCCCCCCCCCC(=O)N[C@@H](CCC(=O)NCCCC[C@H](NC(=O)[C@H](CO)NC(=O)[C@@H]1CCCN1C(=O)[C@@H]1CCCN1C(=O)[C@@H]1CCCN1C(=O)[C@H](C)NC(=O)CNC(=O)[C@H](CO)NC(=O)[C@H](CO)NC(=O)[C@@H]1CCCN1C(=O)CNC(=O)CNC(=O)[C@H](C)NC(=O)[C@H](CC(C)C)NC(=O)[C@H](CC(C)C)NC(=O)[C@H](Cc1c[nH]c2ccccc12)NC(=O)[C@H](CC(N)=O)NC(=O)[C@@H](NC(=O)[C@H](Cc1ccccc1)NC(=O)[C@H](CCC(=O)O)NC(=O)C(C)(C)NC(=O)[C@H](C)NC(=O)[C@H](C)NC(=O)[C@H](CCC(N)=O)NC(=O)[C@H](CCCCN)NC(=O)[C@H](CC(=O)O)NC(=O)[C@H](CC(C)C)NC(=O)[C@H](Cc1ccc(O)cc1)NC(=O)[C@@H](NC(=O)[C@H](CO)NC(=O)[C@H](Cc1ccc(O)cc1)NC(=O)[C@H](CC(=O)O)NC(=O)[C@H](CO)NC(=O)[C@@H](NC(=O)[C@H](Cc1ccccc1)NC(=O)[C@@H](NC(=O)CNC(=O)[C@H](CCC(=O)O)NC(=O)CSCC(=O)NCCN1CCN(C)C(=O)C1)[C@@H](C)O)[C@@H](C)O)[C@@H](C)CC)C(C)C)C(N)=O)C(=O)O` [Compound 38], the Emax at GIP-R (Table 3) lay within 18 to 43%; at GIP-R (Table 3A), 18 to 43%; at GLP-1R [1] (Table 3), 97 to 104%; at GLP-1R [1] (Table 3A), 97 to 104%. Further, the EC50 at GIP-R (setting [3]) is 1 to 10 nM; at GIP-R (setting [4]), 1 to 1000 nM; on GLP-1R [1] (setting [5]), 0.1 to 1 nM; at GLP-1R [1] (setting [6]) it was 0.1 to 1 nM; at GLP-1R [2] (setting [7]), over 1000 nM.
Regarding `CC[C@H](C)[C@H](NC(=O)[C@H](CO)NC(=O)[C@H](Cc1ccc(O)cc1)NC(=O)[C@H](CC(=O)O)NC(=O)[C@H](CO)NC(=O)[C@@H](NC(=O)[C@H](Cc1ccccc1)NC(=O)[C@@H](NC(=O)CNC(=O)[C@H](CCC(=O)O)NC(=O)CSCC(=O)NCCN1C(=O)c2ccccc2C1=O)[C@@H](C)O)[C@@H](C)O)C(=O)N[C@@H](Cc1ccc(O)cc1)C(=O)N[C@@H](CC(C)C)C(=O)N[C@@H](CC(=O)O)C(=O)N[C@@H](CCCCN)C(=O)N[C@@H](CCC(N)=O)C(=O)N[C@@H](C)C(=O)N[C@H](C(=O)NC(C)(C)C(=O)N[C@@H](CCC(=O)O)C(=O)N[C@@H](Cc1ccccc1)C(=O)N[C@H](C(=O)N[C@@H](CC(N)=O)C(=O)N[C@@H](Cc1c[nH]c2ccccc12)C(=O)N[C@@H](CC(C)C)C(=O)N[C@@H](CC(C)C)C(=O)N[C@@H](C)C(=O)NCC(=O)NCC(=O)N1CCC[C@H]1C(=O)N[C@@H](CO)C(=O)N[C@@H](CO)C(=O)NCC(=O)N[C@@H](C)C(=O)N1CCC[C@H]1C(=O)N1CCC[C@H]1C(=O)N1CCC[C@H]1C(=O)N[C@@H](CO)C(=O)N[C@@H](CCCCN)C(N)=O)[C@@H](C)CC)C(C)C` [Compound 133] (X1-EGTFTSDYSIYLDKQAV[Aib]EFINWLLAGGPSSGAPPPSK-NH2), the EC50 is 0.1 to 1 nM on GIP-R (EC50 GIP-R/nM, Table 3); 0.1 to 1 nM on GIP-R (EC50 GIP-R/nM, Table 3A); 1 to 10 nM on GLP-1R [1] (EC50 GLP-1R/nM, Table 3); 1 to 10 nM at GLP-1R [1] (EC50 GLP-1R/nM, Table 3A); over 1000 nM on GLP-1R [2]. Further, the Emax came to 104% at GIP-R (Table 3), 104% at GIP-R (Table 3A), 98% at GLP-1R [1] (Table 3) and 98% on GLP-1R [1] (Table 3A).

Usually Emax stands for the size of the effect at its maximum, as opposed to the concentration needed.
